# Entries after “also recorded” stand apart in the source; their conditions may differ.
# Tests used:
# bacteria = settings: cited from earlier work
# B. cereus = test: Antibiotic disc diffusion assay of antibacterial activity against B. cereus; format: cell-based, Bacillus cereus ATCC19637; settings: purified moe A intermediates on B. cereus reporter strain; FIG. 19, 50-200 nM per disc
# Description: Spots 1 and 2—moe A (100 and 10 nM per disc, respectively); 3—compound 15 (100 nM); 4—compound 16 (100 nM), 5—compound 17 (100 nM), 6—compound 24 (100 nM), 7—mixture of compounds 22 and 23 (200 nM), 8—compound 11 (100 nM), 9—mixture of compounds 22 and 23 (50 nM), 10—mixture of compounds 2 and 3 (200 nM), 11—compound 1 (200 nM), 12—extract from 5 g S. lividans TK24 mycelial cake.
# Moes producers S. ghanaensis ATCC14672 and S. bambergiensis NRRL-B12101 were obtained from American Type Culture Collection (“ATCC”) and the U.S. Department of Agriculture, respectively. S. lividans TK24, S. coelicolor M145 (Kieser 2000), S. cyanogenus S136 (Westrich 1999) were used in studies on moe A resistance in Streptomyces. Bacillus cereus ATCC19637 was used as a moe-sensitive test culture.
# For all moe production analysis procedures, equal amounts of biomass (wet weight) and fermentation medium were used. […]
# Heterologous expression of moe biosynthetic genes in S. lividans TK24 leads to the production of moe derivatives and intermediates. […] Antibiotic disc diffusion assay, LC-MS, MS/MS and determination of accurate mass spectra of moenomycins were carried out as described in (Ostash 2007). ^1H NMR spectra of compound 11 (FIG. 4) were recorded on a Varian Inova 500 (500 MHz) instrument in D2O (4.80 ppm). […]
Compound,activity in vivo (biological / antibacterial activity) (bacteria),antibacterial activity (bioactivity) in disk diffusion assay (B. cereus)
Neryl-moenomycin,biologically inactive,–
C=C(C/C=C(\C)CCC=C(C)C)CCC(C)(C)/C=C/CC/C(C)=C\CO[C@H](COP(=O)(O)OC1OC(C(N)=O)C(C)(O)C(OC(N)=O)C1OC1OC(COC2OC(CO)C(O)C(O)C2O)C(O)C(O)C1NC(C)=O)C(=O)O (some centres unmarked) [Compound 11],–,has biological activity; also recorded: biologically active
